Measurements from patent US10301280B2 (Plexxikon Inc., priority 2012, dated 2019).

What follows are compounds tested on BaF3-FL KIT D816V or BaF3-FL KIT V560G/D816V cell line (assay: Cell-based assays of c-Kit mutant kinase activity (cell growth, ATPlite)). Settings: at least one of the c-kit cell assays of Example 26.
Method: The c-Kit mutant D816V inhibitors were assessed using an engineered BaF3-FL KIT D816V or BaF3-FL KIT V560G/D816V cell line. The BaF3-FL KIT D816V cell lines were created by introduction of KIT mutant (D816V) full length constructs that render the cells dependent on the introduced kinase for growth. Inhibitors of c-Kit mutant D816V kinase reduce or eliminate the mediated c-kit mutant D816V kinase activation, resulting in reduced cell proliferation of the BaF3-FL Kit mutant D816V cells. This inhibition is measured by the effect of compound concentration on cell growth to assess IC50 values. BaF3-FL KIT D816V cells were seeded at 1×10^4 cells per well of a 96 well cell culture plate in 50 μl of cell culture medium of RPMI Medium 1X (Invitrogen #11875-093) supplemented with 10% FBS (Invitrogen #10438), 1% Non Essential Amino Acids(Invitrogen #11140), 1% Penicillin Streptomycin (Invitrogen #15140), 1% L-Glutamine (Invitrogen #25030-081). Compounds were dissolved in DMSO at a concentration of 5 mM and were serially diluted 1:3 for a total of eight points and added to the cells to a final maximum concentration of 10 μM in 100 μl cell culture medium (final concentration 0.2% DMSO). Cells were also treated with Dasatinib as a positive control. The cells were incubated at 37° C., 5% CO2 for three days. ATPlite Buffer (Perkin Elmer #6016739) and substrate were equilibrated to room temperature, and enzyme/substrate Recombinant Firefly Luciferase/D-Luciferin was reconstituted. The cell plates were equilibrated to room temperature for 30 minutes, then lysed by addition of 25 uL per well of the ATPlite Reagent. The plate was mixed for 5 minutes on a plate shaker to lyse the cells. The plates were read on a Tecan Safire using Luminescence protocol modified to read 0.1 s per well. The luminescence reading assesses the ATP content, which correlates directly with cell number such that the reading as a function of compound concentration is used to determine the IC50 value.
Plasmids P75635 and P75565 were engineered for mammalian cell expression. In both plasmids, full-length human v-kit Hardy-Zuckerman 4 feline sarcoma viral oncogene homolog gene (NCBI accession NM_000222, KIT, residues M1-V976) was subcloned into the pCI-Neo vector (Promega E1841). Plasmid P75635 contains the mutation of residue Aspartic acid 816 to Valine. Plasmid P75565 contains the double mutation of residues Valine 560 to Glycine and Aspartic acid 816 to Valine. The pCI-neo Mammalian Expression Vector carries the human cytomegalovirus (CMV) immediate-early enhancer/promoter region to promote constitutive expression of KIT and contains the neomycin phosphotransferase gene, a selectable marker.
It is understood that the results of these assays may vary as assay conditions are varied. Inhibition levels determined under the conditions described herein represent a relative activity for the compounds tested under the specific conditions employed. The cell based assays are likely to show variability due to the complexity of the system and the sensitivity thereof to any changes in the assay conditions. […] In some instances, the compounds were not tested in all of the assays, or assay results were not valid.

SMILES | IC50
Cc1n[nH]c(C(=O)Nc2cnc3[nH]c(-c4ccc(N5CCN(C)CC5)cc4)cc3c2)c1C [P-2104, 3,4-dimethyl-N-[2-[4-(4-methylpiperazin-1-yl)phenyl]-1H-pyrrolo[2,3-b]pyridin-5-yl]-1H-pyrazole-5-carboxamide] | < 10 µM
CCCS(=O)(=O)Nc1cccc(-c2cc3cc(NC(=O)c4[nH]nc(C)c4C)cnc3[nH]2)c1 [P-2126, 3,4-dimethyl-N-[2-[3-(propylsulfonylamino)phenyl]-1H-pyrrolo[2,3-b]pyridin-5-yl]-1H-pyrazole-5-carboxamide] | < 10 µM
O=C(c1cccnc1)c1cnc2[nH]c(-c3ccccc3)cc2c1 [P-2002, (2-phenyl-1H-pyrrolo[2,3-b]pyridin-5-yl)-(3-pyridyl)methanone] | < 10 µM
Cc1n[nH]c(C(=O)Nc2cnc3[nH]c(-c4cccnc4)cc3c2)c1C [P-2088, 3,4-dimethyl-N-[2-(3-pyridyl)-1H-pyrrolo[2,3-b]pyridin-5-yl]-1H-pyrazole-5-carboxamide] | < 10 µM
O=C(Nc1cnc2[nH]c(-c3ccc(F)cc3)cc2c1)c1ncn[nH]1 [P-2035, N-[2-(4-fluorophenyl)-1H-pyrrolo[2,3-b]pyridin-5-yl]-1H-1,2,4-triazole-5-carboxamide] | < 10 µM
Cc1[nH]nc(C(=O)Nc2cnc3[nH]c(-c4cncc(F)c4)cc3c2)c1C [P-2253, N-(2-(5-fluoropyridin-3-yl)-1H-pyrrolo[2,3-b]pyridin-5-yl)-4,5-dimethyl-1H-pyrazole-3-carboxamide] | < 10 µM
Cc1n[nH]c(C(=O)Nc2cnc3[nH]c(-c4cccc(Cl)c4C)cc3c2)c1C [P-2147, N-[2-(3-chloro-2-methyl-phenyl)-1H-pyrrolo[2,3-b]pyridin-5-yl]-3,4-dimethyl-1H-pyrazole-5-carboxamide] | < 10 µM
Cc1n[nH]c(C(=O)Nc2cnc3[nH]c(-c4ccnc(C5CC5)c4)cc3c2)c1C [P-2108, N-[2-(2-cyclopropyl-4-pyridyl)-1H-pyrrolo[2,3-b]pyridin-5-yl]-3,4-dimethyl-1H-pyrazole-5-carboxamide] | < 10 µM
CC(=O)Nc1cccc(-c2cc3cc(NC(=O)c4[nH]nc(C)c4C)cnc3[nH]2)c1 [P-2100, N-[2-(3-acetamidophenyl)-1H-pyrrolo[2,3-b]pyridin-5-yl]-3,4-dimethyl-1H-pyrazole-5-carboxamide] | < 10 µM
CCc1n[nH]c(C(=O)Nc2cnc3[nH]c(-c4ccc(F)cc4)cc3c2)c1Cl [P-2173, 4-chloro-3-ethyl-N-[2-(4-fluorophenyl)-1H-pyrrolo[2,3-b]pyridin-55-yl]-1H-pyrazole-5-carboxamide] | < 10 µM
Cc1[nH]nc(C(=O)Nc2cnc3[nH]c(-c4cccc5c4OC(F)(F)O5)cc3c2)c1C [P-2267, N-(2-(2,2-difluorobenzo[d][1,3]dioxol-4-yl)-1H-pyrrolo[2,3-b]pyridin-5-yl)-4,5-dimethyl-1H-pyrazole-3-carboxamide] | < 10 µM
Cc1cc(CNc2cnc3[nH]c(-c4ccc(F)cc4)cc3c2)[nH]n1 [P-2142, 2-(4-fluorophenyl)-N-[(5-methyl-1H-pyrazol-3-yl)methyl]-1H-pyrrolo[2,3-b]pyridin-5-amine] | < 10 µM
Cc1cc(C(=O)Nc2cnc3[nH]c(-c4ccc(F)cc4)cc3c2)nn1C [P-2119, N-[2-(4-fluorophenyl)-1H-pyrrolo[2,3-b]pyridin-5-yl]-1,5-dimethyl-pyrazole-3-carboxamide] | < 10 µM
Cc1n[nH]c(C(=O)Nc2cnc3[nH]c(-c4ccc(C(=O)N5CCSCC5)cc4)cc3c2)c1C [P-2105, 3,4-dimethyl-N-[2-[4-(thiomorpholine-4-carbonyl)phenyl]-1H-pyrrolo[2,3-b]pyridin-5-yl]-1H-pyrazole-5-carboxamide] | < 10 µM
Cc1[nH]nc(C(=O)Nc2cnc3[nH]cc(-c4ccnc(N5CCOCC5)c4)c3c2)c1C [P-2193, 4,5-dimethyl-N-(3-(2-morpholinopyridin-4-yl)-1H-pyrrolo[2,3-b]pyridin-5-yl)-1H-pyrazole-3-carboxamide] | < 10 µM
CC(=O)N1CC(n2cc(-c3cc4cc(NC(=O)c5n[nH]c(C)c5C)cnc4[nH]3)c(C)n2)C1 [P-2194, N-(2-(1-(1-acetylazetidin-3-yl)-3-methyl-1H-pyrazol-4-yl)-1H-pyrrolo[2,3-b]pyridin-5-yl)-4,5-dimethyl-1H-pyrazole-3-carboxamide] | < 10 µM
Cc1cc(-c2cc3cc(NC(=O)c4n[nH]c(C)c4C)cnc3[nH]2)ccn1 [P-2246, 4,5-dimethyl-N-(2-(2-methylpyridin-4-yl)-1H-pyrrolo[2,3-b]pyridin-5-yl)-1H-pyrazole-3-carboxamide] | < 10 µM
Cc1[nH]nc(C(=O)Nc2cnc3[nH]c(-c4ccncc4Cl)cc3c2)c1C [P-2250, N-(2-(3-chloropyridin-4-yl)-1H-pyrrolo[2,3-b]pyridin-5-yl)-4,5-dimethyl-1H-pyrazole-3-carboxamide] | < 10 µM
Cc1[nH]nc(C(=O)Nc2cnc3[nH]c(-c4ccccc4C(F)F)cc3c2)c1C [P-2257, N-(2-(2-(difluoromethyl)phenyl)-1H-pyrrolo[2,3-b]pyridin-5-yl)-4,5-dimethyl-1H-pyrazole-3-carboxamide] | < 10 µM

Second part, the compound after the results:

IC50 | SMILES
< 10 µM | Cc1n[nH]c(C(=O)Nc2cnc3[nH]c(-c4ccnc(N5CCOCC5)c4)cc3c2)c1C [P-2110, 3,4-dimethyl-N-[2-(2-morpholino-4-pyridyl)-1H-pyrrolo[2,3-b]pyridin-5-yl]-1H-pyrazole-5-carboxamide]
< 10 µM | CCCCNC(=O)Nc1cccc(-c2cc3cc(NC(=O)c4[nH]nc(C)c4C)cnc3[nH]2)c1 [P-2134, N-[2-[3-(butylcarbamoylamino)phenyl]-1H-pyrrolo[2,3-b]pyridin-5-yl]-3,4-dimethyl-H-pyrazole-5-carboxamide]
< 10 µM | Cc1[nH]nc(C(=O)Nc2cnc3[nH]c(-c4ccnc(C(=O)NCCN(C)C)c4)cc3c2)c1C [P-2221, 4-(5-(4,5-dimethyl-1H-pyrazole-3-carboxamido)-1H-pyrrolo[2,3-b]pyridin-2-yl)-N-(2-(dimethylamino)ethyl)picolinamide]
< 10 µM | COc1nc(C)ccc1-c1cc2cc(NC(=O)c3[nH]nc(C)c3C)cnc2[nH]1 [P-2170, N-[2-(2-methoxy-6-methyl-3-pyridyl)-1H-pyrrolo[2,3-b]pyridin-5-yl]-3,4-dimethyl-1H-pyrazole-5-carboxamide]
< 10 µM | Cc1n[nH]c(C(=O)Nc2cnc3[nH]c(-c4ccnc(N5CCOCC5)c4F)cc3c2)c1C [P-2082, N-[2-(3-fluoro-2-morpholino-4-pyridyl)-1H-pyrrolo[2,3-b]pyridin-5-yl]-3,4-dimethyl-1H-pyrazole-5-carboxamide]
< 10 µM | O=C(Nc1cnc2[nH]c(-c3ccccc3)cc2c1)c1cccnn1 [P-2014, N-(2-phenyl-1H-pyrrolo[2,3-b]pyridin-5-yl)pyridazine-3-carboxamide]
< 10 µM | Cc1[nH]nc(C(=O)Nc2cnc3[nH]c(-c4ccnc(C(=O)NCCC#N)c4)cc3c2)c1C [P-2227, N-(2-cyanoethyl)-4-(5-(4,5-dimethyl-1H-pyrazole-3-carboxamido)-1H-pyrrolo[2,3-b]pyridin-2-yl)picolinamide]
< 10 µM | CC(=O)N1CCN(c2cc(-c3cc4cc(NC(=O)c5n[nH]c(C)c5C)cnc4[nH]3)ccn2)CC1 [P-2214, N-(2-(2-(4-acetylpiperazin-1-yl)pyridin-4-yl)-1H-pyrrolo[2,3-b]pyridin-5-yl)-4,5-dimethyl-1H-pyrazole-3-carboxamide]
< 10 µM | CCCc1cc(C(=O)Nc2cnc3[nH]c(-c4ccc(F)cc4)cc3c2)[nH]n1 [P-2132, N-[2-(4-fluorophenyl)-1H-pyrrolo[2,3-b]pyridin-5-yl]-3-propyl-1H-pyrazole-5-carboxamide]
< 10 µM | Cc1c(C(=O)Nc2cnc3[nH]c(-c4ccccc4)cc3c2)n[nH]c1C(F)(F)F [P-2231, 4-methyl-N-(2-phenyl-1H-pyrrolo[2,3-b]pyridin-5-yl)-5-(trifluoromethyl)-1H-pyrazole-3-carboxamide]
< 10 µM | COc1cc(-c2cc3cc(NC(=O)c4[nH]nc(C)c4C)cnc3[nH]2)ccn1 [P-2109, N-[2-(2-methoxy-4-pyridyl)-1H-pyrrolo[2,3-b]pyridin-5-yl]-3,4-dimethyl-1H-pyrazole-5-carboxamide]
